Measurements: US4808605A, “Tetrahydronaphthalene derivatives as calcium antagonists” (Hoffmann-La Roche Inc., priority 1986, dated 1989)
pIC50: −log10 of the molar value.

Columns and labels:
[1] = test system: Isolated, perfused guinea pig heart; test: Isolated, perfused guinea pig heart according to Langendorff (Test B); settings: Cavia porcellus, infusion, 10^-10 to 10^-6 M, pH 7.3, 37° C., read-out: CBF IC50
Description: B. Isolated, perfused guinea pig heart according to Langendorff: Guinea pigs weighing approximately 400 g are narcotized with Urethan (1 g/kg i.p.) and the heart is removed rapidly. […] A Miller microtip catheter pressure transducer (PC-350) is inserted in the left heart chamber in order to measure the left ventricular pressure. The total coronary artery flow is collected in a funnel and measured with an electro magnetic flow meter. All measurement parameters are recorded on a recording apparatus (Gould, Model 2800). The test begins after an adaptation of 45 minutes. Substances are infused with a velocity of 1% of the total coronary flow rate. A complete concentration-activity curve (10^-10 to 10^-6 M) is prepared for each substance.

[2] = biological target: T1, ^3 H-desmethoxyverapamil binding, partially-cleaned membranes of guinea pig heart (Cavia porcellus, UniProt O35505); test: ^3 H-Desmethoxyverapamil binding determinations (Test A); settings: half-maximum inhibition of specific ^3 H-desmethoxyverapamil binding; 2.5 nM; 120 minutes at 37° C.
T1 construct: partially-cleaned membranes of guinea pig heart; from tissue; host or cells: guinea pig heart, partially-cleaned membranes
T1 sequence (O35505 whole entry): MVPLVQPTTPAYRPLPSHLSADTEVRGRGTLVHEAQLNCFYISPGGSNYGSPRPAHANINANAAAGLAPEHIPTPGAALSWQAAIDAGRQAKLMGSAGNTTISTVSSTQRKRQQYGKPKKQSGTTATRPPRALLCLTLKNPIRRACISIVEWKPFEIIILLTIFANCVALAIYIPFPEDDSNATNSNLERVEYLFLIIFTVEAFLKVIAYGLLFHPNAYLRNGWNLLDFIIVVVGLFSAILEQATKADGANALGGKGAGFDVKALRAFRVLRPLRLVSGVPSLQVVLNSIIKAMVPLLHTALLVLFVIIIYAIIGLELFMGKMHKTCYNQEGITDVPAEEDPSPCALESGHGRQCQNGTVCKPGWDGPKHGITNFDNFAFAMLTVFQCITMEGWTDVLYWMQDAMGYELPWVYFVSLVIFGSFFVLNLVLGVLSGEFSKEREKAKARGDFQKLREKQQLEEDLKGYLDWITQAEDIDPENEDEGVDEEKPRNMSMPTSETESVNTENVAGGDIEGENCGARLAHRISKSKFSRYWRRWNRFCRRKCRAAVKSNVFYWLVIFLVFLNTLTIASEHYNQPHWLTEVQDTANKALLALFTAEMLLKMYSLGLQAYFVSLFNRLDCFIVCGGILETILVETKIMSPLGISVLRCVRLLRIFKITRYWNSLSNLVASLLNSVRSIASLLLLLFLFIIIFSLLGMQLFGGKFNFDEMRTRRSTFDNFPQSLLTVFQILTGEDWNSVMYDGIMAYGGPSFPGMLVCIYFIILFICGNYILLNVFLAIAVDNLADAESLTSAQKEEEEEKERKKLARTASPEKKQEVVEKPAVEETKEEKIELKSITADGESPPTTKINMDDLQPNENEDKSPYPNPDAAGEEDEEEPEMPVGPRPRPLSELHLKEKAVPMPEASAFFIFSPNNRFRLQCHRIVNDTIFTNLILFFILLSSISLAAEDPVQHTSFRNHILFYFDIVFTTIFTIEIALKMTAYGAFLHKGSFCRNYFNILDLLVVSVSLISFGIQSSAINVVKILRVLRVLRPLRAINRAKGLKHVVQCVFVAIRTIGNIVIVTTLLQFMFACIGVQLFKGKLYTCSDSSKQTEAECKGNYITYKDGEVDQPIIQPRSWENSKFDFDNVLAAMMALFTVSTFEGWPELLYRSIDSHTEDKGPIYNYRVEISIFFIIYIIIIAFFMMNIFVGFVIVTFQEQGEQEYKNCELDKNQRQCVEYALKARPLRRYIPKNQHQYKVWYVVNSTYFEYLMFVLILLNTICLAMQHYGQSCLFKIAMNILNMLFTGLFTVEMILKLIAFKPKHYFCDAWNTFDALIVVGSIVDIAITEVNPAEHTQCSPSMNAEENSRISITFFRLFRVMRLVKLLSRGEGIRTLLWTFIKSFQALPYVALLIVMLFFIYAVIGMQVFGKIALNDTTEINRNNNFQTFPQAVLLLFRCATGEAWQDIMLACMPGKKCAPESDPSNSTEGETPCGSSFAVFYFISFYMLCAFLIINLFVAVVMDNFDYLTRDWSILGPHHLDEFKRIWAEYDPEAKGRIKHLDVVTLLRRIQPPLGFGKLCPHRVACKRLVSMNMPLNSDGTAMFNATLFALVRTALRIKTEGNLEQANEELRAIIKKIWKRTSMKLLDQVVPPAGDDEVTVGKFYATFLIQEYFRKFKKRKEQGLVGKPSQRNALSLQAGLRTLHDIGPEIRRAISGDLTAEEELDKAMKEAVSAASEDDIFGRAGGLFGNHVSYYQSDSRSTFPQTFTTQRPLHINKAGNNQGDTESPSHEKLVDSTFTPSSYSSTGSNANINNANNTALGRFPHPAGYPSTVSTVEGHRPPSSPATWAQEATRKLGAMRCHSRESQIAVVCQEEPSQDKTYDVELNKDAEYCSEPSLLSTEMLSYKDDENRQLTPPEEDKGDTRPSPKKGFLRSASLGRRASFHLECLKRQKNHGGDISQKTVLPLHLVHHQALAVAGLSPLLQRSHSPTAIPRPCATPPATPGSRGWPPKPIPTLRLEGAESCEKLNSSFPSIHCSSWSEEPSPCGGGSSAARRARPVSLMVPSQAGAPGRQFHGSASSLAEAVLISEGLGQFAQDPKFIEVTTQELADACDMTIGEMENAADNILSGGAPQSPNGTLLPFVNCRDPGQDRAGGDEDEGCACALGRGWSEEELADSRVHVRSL
Description: A. ^3 H-Desmethoxyverapamil binding determinations:
The determination is carried out on partially-cleaned membranes of guinea pig heart. […] The incubation lasts 120 minutes at 37° C. and is stopped by dilution with the incubation buffer; a filtration is subsequently carried out. The filter-bound radioactivity is measured with a scintillation counter. Specific binding (i.e. receptor-bound) is defined as the difference between total and unspecific-bound radioactivity. The unspecific binding is determined in the presence of an excess of non-radioactive verapamil (10 μM).
The activity (potency) of a compound in this test is defined by the IC50 value. The IC50 is the substance concentration (in mol/l) which produces a half-maximum inhibition of the specific ^3 H-desmethoxyverapamil binding. This value is extrapolated from a concentration-binding curve.

[3] = test system: narcotized dog; test: Haemodynamic parameters in the narcotized dog (Test C); type: in vivo; settings: % maximum variation from initial value; for BP Δ %: blood pressure; for CBF Δ %: coronary blood flow; for HR Δ %: heart rate; for dp/dt Δ %: rate of increase in left ventricular pressure
Description: C. […] The values are given as the % maximum variation from the initial value (Δ %) and the duration of this variation (t) per dosage administered. There is thus obtained not only an overall picture of the activity of the substance, but also an estimation as to the potential selectivity for a specific part of the circulatory system in the entire organism. After the administration of an anaesthetic, the dog is intubated and respired artificially. Blood pH, pC2 O , pO2 and haemoglobin are measured hourly with a blood-gas analyser. The blood pressure (systolic and diastolic) is measured with a probe in the aorta abdominalis. The heart freguency is recorded by means of a tachometer, which is disengaged from the pressure pulse. For the other measurements the heart must be firstly be opened in order that a probe can be inserted in the left ventricle (heart chamber) for the pressure measurements (dp/dt). The coronary blood flow is measured with a flowing probe in the left coronary artery (descendens).

SMILES | pIC50 [1] | pIC50 [2] | BP Δ % ([3]; 0.3 mg/kg i.v.) [%] | CBF Δ % ([3]; 0.3 mg/kg i.v.) [%] | HR Δ % ([3]; 0.3 mg/kg i.v.) [%] | dp/dt Δ % ([3]; 0.3 mg/kg i.v.) [%] | BP Δ % ([3]; 1 mg/kg i.v.) [%] | CBF Δ % ([3]; 1 mg/kg i.v.) [%] | HR Δ % ([3]; 1 mg/kg i.v.) [%] | dp/dt Δ % ([3]; 1 mg/kg i.v.) [%] | BP Δ % ([3]; 0.03 mg/kg i.v.) [%] | CBF Δ % ([3]; 0.03 mg/kg i.v.) [%] | HR Δ % ([3]; 0.03 mg/kg i.v.) [%] | dp/dt Δ % ([3]; 0.03 mg/kg i.v.) [%]
CCCCCCCCCCCCn1c(CCCCCCCN(C)CC[C@@]2(OC(=O)COC)CCc3cc(F)ccc3[C@@H]2C(C)C)nc2ccccc21 [F, [1S,2S]-2-[2-[[7-(1-dodecyl-2-benzimidazolyl)heptyl]methylamino]ethyl]-6-fluoro-1,2,3,4-tetrahydro-1-isopropyl-2-naphthyl methoxyacetate] | 7.55 | 7.47 | -3 | 46 | -2 | 4 | – | – | – | – | – | – | – | –
COCC(=O)O[C@]1(CC[N+](C)([O-])CCCc2nc3ccccc3[nH]2)CCc2cc(F)ccc2[C@@H]1C(C)C (stereo partly drawn) [E, [1S,2S]-2-[2-[[3-(2-benzimidazolyl)propyl]methyl-N-oxidoamino]ethyl]-6-fluoro-1,2,3,4-tetrahydro-1-isopropyl-2-naphthyl methoxyacetate] | 5.00 | 6.00 | – | – | – | – | -8 | 57 | 0 | 10 | – | – | – | –
COCC(=O)O[C@]1(CCN(C)CCCc2nc(-c3ccccc3)c(-c3ccccc3)n2C)CCc2cc(F)ccc2[C@@H]1C(C)C [G, [1S,2S]-6-fluoro-1,2,3,4-tetrahydro-1-isopropyl-2-[2-[[3-(1-methyl-4,5-diphenylimidazol-2-yl)propyl]methylamino]ethyl]-2-naphthyl methoxyacetate] | 8.74 | 6.82 | -20 | 96 | -15 | 11 | – | – | – | – | – | – | – | –
CC(C)[C@H]1c2ccc(F)cc2CC[C@]1(O)CCN(C)CCCCCCCc1nc2ccccc2[nH]1 [B, [1S,2S]-2-[2-[[7-(2-benzimidazolyl)heptyl]methylamino]ethyl]-6-fluoro-1,2,3,4-tetrahydro-1-isopropyl-2-naphthalenol] | 7.30 | 6.20 | -6 | 36 | 0 | 8 | – | – | – | – | – | – | – | –
COCC(=O)O[C@]1(CCN(C)Cc2ccc(Cc3nc4ccccc4[nH]3)cc2)CCc2cc(F)ccc2[C@@H]1C(C)C [I, [1S,2S]-6-fluoro-1,2,3,4-tetrahydro-1-isopropyl-2-[2-[[4-[(2-benzimidazolyl)methyl]benzyl]methylamino]ethyl]-2-naphthyl methoxyacetate] | 7.66 | 7.00 | -14 | 82 | -9 | 18 | – | – | – | – | – | – | – | –
CCCCNC(=O)O[C@]1(CCN(C)CCCCCc2nc3ccccc3n2C)CCc2cc(F)ccc2[C@@H]1C(C)C [C, [1S,2S]-6-fluoro-1,2,3,4-tetrahydro-1-isopropyl-2-[2-[methyl-[5-(1-methyl-2-benzimidazolyl)pentyl]amino]ethyl]-2-naphthyl butylcarbamate] | 7.77 | 6.68 | -16 | 62 | -9 | 15 | – | – | – | – | – | – | – | –
COCC(=O)O[C@]1(CCN(C)CCCCCCn2c(=O)[nH]c3ccccc32)CCc2cc(F)ccc2[C@@H]1C(C)C [D, [1S,2S]-6-fluoro-1,2,3,4-tetrahydro-1-isopropyl-2-[2-[methyl-[6-(2-oxo-1-benzimidazolinyl)hexyl]amino]ethyl]-2-naphthyl methoxyacetate] | 8.96 | 7.49 | – | – | – | – | – | – | – | – | -21 | 22 | -25 | 6
COCC(=O)O[C@]1(CCN(C)CCCCCc2nc3ccccc3s2)CCc2cc(F)ccc2[C@@H]1C(C)C [H, [1S,2S]-2-[2-[[5-(2-benzthiazolyl)pentyl]methylamino]ethyl]-6-fluoro-1,2,3,4-tetrahydro-1-isopropyl-2-naphthyl methoxyacetate] | 8.62 | 7.55 | -28 | 146 | -41 | 25 | – | – | – | – | – | – | – | –
COCC(=O)O[C@]1(CCN(C)CCCc2nc3ccccc3[nH]2)CCc2cc(F)ccc2[C@@H]1C(C)C [A, [1S,2S]-2-[2-[[3-(2-benzimidazolyl)propyl]methylamino]ethyl]-6-fluoro-1,2,3,4-tetrahydro-1-isopropyl-2-naphthyl methoxyacetate] | 7.33 | 6.89 | -22 | 86 | -7 | 25 | – | – | – | – | – | – | – | –
